Data as given in patent US10538555B2, “Macrocyclic inhibitors of the PD-1/PD-L1 and CD80(B7-1)/PD-L1 protein/protein interactions” (BRISTOL-MYERS SQUIBB COMPANY, priority 2014, dated 2020).
pIC50: −log10 of the molar value. *1 amine or outer side, *2 acyl side, *3 side chain or, on linkers, in order; H or OH if unused. Where a SMILES comes first, the peptide text is derived from it. Bridges are numbered along the chain shown (N, C = ends). [ ]: non-standard residue; d: D form. Trp(1-CH2COOH) = N[C@@H](Cc1cn(CC(=O)O)c2ccccc12)C(=O)O; Phe(3,4,5-F3) = N[C@@H](Cc1cc(F)c(F)c(F)c1)C(=O)O; NMePhe(4-F) = CN[C@@H](Cc1ccc(F)cc1)C(=O)O; d(cisHyp) = O=C(O)[C@H]1C[C@@H](O)CN1; Hyp = O=C(O)[C@@H]1C[C@@H](O)CN1; NMeF = CN[C@@H](Cc1ccccc1)C(=O)O; X1 = O=C([C@H]1COCCN1[*:1])[*:2]; dHyp = O=C(O)[C@H]1C[C@H](O)CN1; NMehSer = CN[C@@H](CCO)C(=O)O; NMeNle = CCCC[C@H](NC)C(=O)O; Pip = O=C(O)[C@@H]1CCCCN1; dPip = O=C(O)[C@H]1CCCCN1; NMeA = CN[C@@H](C)C(=O)O; Orn = NCCC[C@H](N)C(=O)O

Target: T1, Human PD-L1/PD-1 (Homo sapiens, UniProt Q9NZQ7)
T1 construct: TVMV protease cleavage site (C); made in house; host or cells: HEK293T cells
T1 sequence (Q9NZQ7 with tags, fused parts or gaps): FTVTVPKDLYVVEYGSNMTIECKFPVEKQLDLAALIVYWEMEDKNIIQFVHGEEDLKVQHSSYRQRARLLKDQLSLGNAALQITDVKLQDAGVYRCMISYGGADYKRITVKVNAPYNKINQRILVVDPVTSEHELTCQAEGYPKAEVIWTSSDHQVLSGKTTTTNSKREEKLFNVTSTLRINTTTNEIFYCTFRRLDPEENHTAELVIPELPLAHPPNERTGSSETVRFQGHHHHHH
Experiment: HTRF Human PD-L1/PD-1 binding assay (PD-1-Ig/PD-L1-His)
Conditions: PD-L1-His 10 nM, PD-1-Ig 20 nM; class symbol; read-out: HTRF Human PD-L1/PD-1 Binding Assay IC50 Range
How it was run: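 Soluble HEK293T-expressed proteins: hPD-L1-His 10 nM, hPD-1-Ig 20 nM final. Cpd + PD-L1 15 min, + PD-1 15 min, + Eu anti-Ig 1 nM/APC anti-His 20 nM 30 min. Buffer dPBS, 0.1% BSA, 0.05% Tween-20. TR-FRET 665/620.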

SMILES | pIC50
COCC[C@H]1C(=O)N2C[C@@H](O)C[C@@H]2C(=O)N[C@@H](CC(=O)O)C(=O)N[C@@H](C(C)C)C(=O)N(C)[C@@H](Cc2ccccc2)C(=O)N[C@@H](CCC(N)=O)C(=O)N2CCOC[C@@H]2C(=O)N[C@@H](Cc2c[nH]c3ccccc23)C(=O)N[C@@H](Cc2ccc(O)cc2)C(=O)N[C@@H](CCCN)C(=O)N[C@H](C(=O)NCC(N)=O)CSCC(=O)N[C@@H](Cc2cc(F)c(F)c(F)c2)C(=O)N(C)[C@@H](Cc2ccccc2)C(=O)N1C [Example 9267] ({CH2CO}-[Phe(3,4,5-F3)][NMeF][NMehSer](Me)[dHyp]DV[NMeF]Q[X1]WY[Orn]CG-NH2; thioether N-13) | 8.00 to 9.00
CCCC[C@H]1C(=O)N2C[C@H](O)C[C@@H]2C(=O)N[C@@H](CC(=O)O)C(=O)N[C@@H](C(C)C)C(=O)N(C)[C@@H](Cc2ccccc2)C(=O)N[C@@H](Cc2ccc(O)cc2)C(=O)N2C[C@H](O)C[C@@H]2C(=O)N[C@@H](Cc2c[nH]c3ccccc23)C(=O)N[C@@H](Cc2ccc(O)cc2)C(=O)N[C@@H](CCCN)C(=O)N[C@H](C(=O)NCC(N)=O)CSCC(=O)N[C@@H](Cc2cc(F)c(F)c(F)c2)C(=O)N(C)[C@@H](Cc2ccccc2)C(=O)N1C [Example 9323] ({CH2CO}-[Phe(3,4,5-F3)][NMeF][NMeNle][d(cisHyp)]DV[NMeF]Y[d(cisHyp)]WY[Orn]CG-NH2; thioether N-13) | 8.00 to 9.00
CCCC[C@H]1C(=O)N2C[C@@H](O)C[C@@H]2C(=O)N[C@@H](CC(=O)O)C(=O)N[C@@H](C(C)C)C(=O)N(C)[C@@H](Cc2ccccc2)C(=O)N[C@@H](CCC(=O)O)C(=O)N2CCCC[C@@H]2C(=O)N[C@@H](Cc2c[nH]c3ccccc23)C(=O)N[C@@H](Cc2ccc(O)cc2)C(=O)N[C@@H](CCCCN)C(=O)N[C@H](C(=O)NCC(N)=O)CSCC(=O)N[C@@H](Cc2cc(F)c(F)c(F)c2)C(=O)N(C)[C@@H](Cc2ccc(F)cc2)C(=O)N1C [Example 10560] ({CH2CO}-[Phe(3,4,5-F3)][NMePhe(4-F)][NMeNle][dHyp]DV[NMeF]E[dPip]WYKCG-NH2; thioether N-13) | 8.00 to 9.00
CCCC[C@H]1C(=O)N(C)[C@@H](CCCC)C(=O)N[C@@H](C)C(=O)N[C@H](C(=O)NCC(N)=O)CSCC(=O)N[C@@H](Cc2ccc(O)cc2)C(=O)N2CCCC[C@H]2C(=O)N[C@@H](CC(=O)O)C(=O)N2CCC[C@H]2C(=O)N[C@@H](Cc2cnc[nH]2)C(=O)N[C@@H](CCC(N)=O)C(=O)N2C[C@H](O)C[C@H]2C(=O)N[C@@H](Cc2c[nH]c3ccccc23)C(=O)N[C@@H](CO)C(=O)N[C@@H](Cc2cn(CC(=O)O)c3ccccc23)C(=O)N1C [Example 1292] ({CH2CO}-Y[Pip]DPHQ[Hyp]WS[Trp(1-CH2COOH)][NMeNle][NMeNle]ACG-NH2; thioether N-14) | 7.00 to 8.00
CCCC[C@H]1C(=O)N2C[C@@H](O)C[C@@H]2C(=O)N[C@@H](CC(=O)O)C(=O)N[C@@H](C(C)C)C(=O)N(C)[C@@H](Cc2ccccc2)C(=O)N[C@@H](CCC(=O)O)C(=O)N2CCCC[C@@H]2C(=O)N[C@@H](Cc2c[nH]c3ccccc23)C(=O)N[C@@H](Cc2ccc(O)cc2)C(=O)N[C@@H](CC(N)=O)C(=O)N[C@H](C(=O)NCC(N)=O)CSCC(=O)N[C@@H](Cc2cc(F)c(F)c(F)c2)C(=O)N(C)[C@@H](Cc2ccc(F)cc2)C(=O)N1C [Example 10558] ({CH2CO}-[Phe(3,4,5-F3)][NMePhe(4-F)][NMeNle][dHyp]DV[NMeF]E[dPip]WYNCG-NH2; thioether N-13) | 8.00 to 9.00
CCCC[C@H]1C(=O)N(C)[C@@H](CCCC)C(=O)N[C@@H](CCCNC(=N)N)C(=O)N[C@H](C(=O)NCC(N)=O)CSCC(=O)N[C@@H](Cc2ccc(O)cc2)C(=O)N(C)[C@@H](C)C(=O)N[C@@H](CC(N)=O)C(=O)N2CCC[C@H]2C(=O)N[C@@H](Cc2cnc[nH]2)C(=O)N[C@@H](CCC(=O)O)C(=O)N2C[C@H](O)C[C@H]2C(=O)N[C@@H](Cc2c[nH]c3ccccc23)C(=O)N[C@@H](CO)C(=O)N[C@@H](Cc2cn(CC(=O)O)c3ccccc23)C(=O)N1C [Example 6228] ({CH2CO}-Y[NMeA]NPHE[Hyp]WS[Trp(1-CH2COOH)][NMeNle][NMeNle]RCG-NH2; thioether N-14) | 8.00 to 9.00
